Test [1] addresses full-length activated BTK mutant C481S (Homo sapiens (Human), UniProt Q06187, C481S). The experiment in a line: AlphaScreen assay, BTK mutant C481S. To be noted: for inhibition at 10 µM: read-out: BTK-C481S % @ 10 uM, @ 10 uM. It counts as biochemical. How it is done:
(§1) The activated BTK was frozen in 50 μl aliquots (125-150 μg/ml).
(§2) BTK activity was assayed using a PLCγ2-derived biotinylated peptide substrate (biotin-[…]-OH) and AlphaScreen™ (Amplified Luminescent Proximity Homogeneous Assay) technology. The extent of peptide phosphorylation was determined by using acceptor beads conjugated to phosphotyrosine antibody that recognized the phosphorylated peptide and donor beads conjugated to streptavidin that binds to the biotin on the peptide. Excitation of the donor beads converted ambient oxygen to excited singlet oxygen which when in close proximity to acceptor beads, reacted with acceptor beads resulting in signal amplification.
(§3) Test inhibitors and controls were prepared in 10% DMSO at 10-fold the desired final concentration and added to each well of a reaction plate (Corning 96-well half-area solid white nonbinding surface plate) in a volume of 2.5 μl. […] The plate was incubated for 120 min at room temperature and the reaction stopped by the addition of 10 μl stop/detection mixture containing 35 mM EDTA, 50 ug/ml AlphaScreen™ Streptavidin Donor beads (final concentration is 500 ng/well) and AlphaScreen™ Phospho-tyrosine (P-Tyr-100) Acceptor beads (final concentration is 500 ng/well) under green light conditions. The plate was incubated overnight at room temperature in the dark and the plates read on the BMG PolarStar Omega ([…], Gain=4000). Data were archived and analyzed with a 4-parameter fit to generate IC50 values using the CDD Vault from Collaborative Drug Discovery.
(In general: Bead proximity is the source of the signal in Alpha formats.)

In test [2] the target is full-length activated BTK (wildtype) (Homo sapiens (Human), UniProt Q06187). The experiment in a line: AlphaScreen assay, wild-type BTK. To be noted: for inhibition at 10 µM: read-out: BTK % @ 10 uM, @ 10 uM. The test is classed as biochemical. How it is done:
as §1, §2, §3

The structures appear in SMILES notation.

Chain of full-length activated BTK (wildtype) (Q06187 whole entry): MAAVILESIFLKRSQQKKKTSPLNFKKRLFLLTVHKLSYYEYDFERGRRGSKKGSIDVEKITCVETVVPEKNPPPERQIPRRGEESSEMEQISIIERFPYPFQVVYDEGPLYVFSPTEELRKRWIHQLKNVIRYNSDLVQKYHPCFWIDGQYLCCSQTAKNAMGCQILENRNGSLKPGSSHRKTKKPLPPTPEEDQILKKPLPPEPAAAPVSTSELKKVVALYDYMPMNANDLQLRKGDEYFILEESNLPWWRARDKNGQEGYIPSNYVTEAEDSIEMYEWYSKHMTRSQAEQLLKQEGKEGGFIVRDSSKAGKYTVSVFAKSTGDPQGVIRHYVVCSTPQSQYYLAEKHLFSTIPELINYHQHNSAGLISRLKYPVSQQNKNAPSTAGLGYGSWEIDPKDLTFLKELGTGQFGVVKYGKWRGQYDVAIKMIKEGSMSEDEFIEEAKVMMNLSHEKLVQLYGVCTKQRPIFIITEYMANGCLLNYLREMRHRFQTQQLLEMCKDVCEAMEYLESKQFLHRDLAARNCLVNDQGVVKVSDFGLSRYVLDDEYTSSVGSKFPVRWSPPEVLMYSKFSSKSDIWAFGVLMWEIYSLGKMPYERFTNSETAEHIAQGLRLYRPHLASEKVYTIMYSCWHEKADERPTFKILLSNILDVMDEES
Chain of full-length activated BTK mutant C481S (Q06187 whole entry C481S): as the sequence (Q06187 whole entry) above, with C481S counted along it

As for `O=C(Nc1cccc(C(=O)c2c[nH]c3ncnc(N[C@@H]4CC[C@@H](CO)OC4)c23)c1)c1ccccc1` [Compound I-642, N-(3-(4-(((3R,6S)-6-(hydroxymethyl)tetrahydro-2H-pyran-3-yl)amino)-7H-pyrrolo[2,3-d]pyrimidine-5-carbonyl)phenyl)benzamide], the IC50 (usually the concentration that gives 50% inhibition) in test [1] was found to be 203 nM; in test [2], 251 nM.

For the compound `O=C(Nc1ccccc1)c1ccc(C(=O)c2c[nH]c3ncnc(N[C@@H]4CC[C@@H](CO)OC4)c23)cc1` [Compound I-231, 4-(4-(((3R,6S)-6-(hydroxymethyl)tetrahydro-2H-pyran-3-yl)amino)-7H-pyrrolo[2,3-d]pyrimidine-5-carbonyl)-N-phenylbenzamide], the IC50 in test [1] was 248 nM; in test [2], 318 nM.

As for `O=C(c1ccc(Oc2ccccc2)cc1Cl)c1c[nH]c2ncnc(NC[C@H]3CN[C@H](CO)C3)c12` [Compound I-369e, (2-chloro-4-phenoxyphenyl)(4-((((3R,5S)-5-(hydroxymethyl)pyrrolidin-3-yl)methyl)amino)-7H-pyrrolo[2,3-d]pyrimidin-5-yl)methanone], the IC50 in test [1] was 137 nM; in test [2] it was 19.8 nM.

For the compound `O=C(NCCN1CCOCC1)c1ccc(C(=O)c2c[nH]c3ncnc(N[C@@H]4CC[C@@H](CO)OC4)c23)c(Cl)c1` [Compound I-613, 3-chloro-4-(4-(((3R,6S)-6-(hydroxymethyl)tetrahydro-2H-pyran-3-yl)amino)-7H-pyrrolo[2,3-d]pyrimidine-5-carbonyl)-N-(2-morpholinoethyl) benzamide], the inhibition at 10 µM was 64% in test [1] and 87% in test [2].

Consider `O=C(Cc1ccccc1)Nc1ccc(C(=O)c2c[nH]c3ncnc(N[C@@H]4CC[C@@H](CO)OC4)c23)c(Cl)c1` [Compound I-639, N-(3-chloro-4-(4-(((3R,6S)-6-(hydroxymethyl)tetrahydro-2H-pyran-3-yl)amino)-7H-pyrrolo[2,3-d]pyrimidine-5-carbonyl)phenyl)-2-phenylacetamide], for which the values for the half-maximal inhibitory concentration (IC50) in test [1] and in test [2] were 25.6 nM and 14.2 nM, respectively.

On to `O=C(c1ccc(N2CCCCC2)cc1Cl)c1c[nH]c2ncnc(N[C@@H]3CC[C@@H](CO)OC3)c12` [Compound I-646, (2-chloro-4-(piperidin-1-yl)phenyl)(4-(((3R,6S)-6-(hydroxymethyl)tetrahydro-2H-pyran-3-yl)amino)-7H-pyrrolo[2,3-d]pyrimidin-5-yl)methanone], for which the IC50 stood at 781 nM in test [1] and 380 nM in test [2].

With `O=C(c1cc(C(=O)N2CCCCC2)ccc1Cl)c1c[nH]c2ncnc(N[C@@H]3CC[C@@H](CO)OC3)c12` [Compound I-623, (4-chloro-3-(4-(((3R,6S)-6-(hydroxymethyl)tetrahydro-2H-pyran-3-yl)amino)-7H-pyrrolo[2,3-d]pyrimidine-5-carbonyl)phenyl)(piperidin-1-yl)methanone], the half-inhibitory concentration (IC50) in test [1] was found to be 185 nM; in test [2], 124 nM.

For `CNC(=O)c1ccc(Oc2ccc(C(=O)c3c[nH]c4ncnc(N[C@@H]5CC[C@@H](CO)OC5)c34)c(Cl)c2)cn1` [Compound I-651, 5-(3-chloro-4-(4-(((3R,6S)-6-(hydroxymethyl)tetrahydro-2H-pyran-3-yl)amino)-7H-pyrrolo[2,3-d]pyrimidine-5-carbonyl)phenoxy)-N-methyl picolinamide], the results for the IC50 in test [1] and in test [2] were 230 nM and 332 nM, respectively.

Consider `O=C(c1cc(C(=O)N2CCc3ccccc3C2)ccc1Cl)c1c[nH]c2ncnc(N[C@@H]3CC[C@@H](CO)OC3)c12` [Compound I-625, (4-chloro-3-(4-(((3R,6S)-6-(hydroxymethyl)tetrahydro-2H-pyran-3-yl)amino)-7H-pyrrolo[2,3-d]pyrimidine-5-carbonyl)phenyl)(3,4-dihydroisoquinolin-2(1H)-yl)methanone], for which the half-maximal inhibitory concentration (IC50) in test [1] worked out at 170 nM; in test [2] it was 110 nM.

As to `CN1C[C@H](CNc2ncnc3[nH]cc(C(=O)c4ccc(Oc5ccccc5)cc4Cl)c23)C[C@H]1CO` [Compound I-370e, (2-chloro-4-phenoxyphenyl)(4-((((3S,5S)-5-(hydroxymethyl)-1-methylpyrrolidin-3-yl)methyl)amino)-7H-pyrrolo[2,3-d]pyrimidin-5-yl)methanone], the IC50 worked out at 49.8 nM in test [1] and 59.5 nM in test [2].

For the compound `O=C(c1cc(C(=O)N2CCN(c3ccccn3)CC2)ccc1Cl)c1c[nH]c2ncnc(N[C@@H]3CC[C@@H](CO)OC3)c12` [Compound I-627, (4-chloro-3-(4-(((3R,6S)-6-(hydroxymethyl)tetrahydro-2H-pyran-3-yl)amino)-7H-pyrrolo[2,3-d]pyrimidine-5-carbonyl)phenyl)(4-(pyridin-2-yl)piperazin-1-yl)methanone], the 50% inhibitory concentration (IC50) in test [1] turned out to be 664 nM; in test [2] it was 777 nM.

In the case of `N#Cc1cccc(NC(=O)c2ccc(Cl)c(C(=O)c3c[nH]c4ncnc(N[C@@H]5CC[C@@H](CO)OC5)c34)c2)c1` [Compound I-630, 4-chloro-N-(3-cyanophenyl)-3-(4-(((3R,6S)-6-(hydroxymethyl)tetrahydro-2H-pyran-3-yl)amino)-7H-pyrrolo[2,3-d]pyrimidine-5-carbonyl)benzamide], the figures for the half-inhibitory concentration (IC50) in test [1] and in test [2] were 189 nM and 18.4 nM, respectively.

With `Cn1cc(NC(=O)c2ccc(C(=O)c3c[nH]c4ncnc(N[C@@H]5CC[C@@H](CO)OC5)c34)cc2)cn1` [Compound I-633, 4-(4-(((3R,6S)-6-(hydroxymethyl)tetrahydro-2H-pyran-3-yl)amino)-7H-pyrrolo[2,3-d]pyrimidine-5-carbonyl)-N-(1-methyl-1H-pyrazol-4-yl)benzamide], the inhibition at 10 µM worked out at 50% in test [1] and 77% in test [2].

For `COc1ccccc1C(=O)NCc1ccc(C(=O)c2c[nH]c3ncnc(N[C@@H]4CC[C@@H](CO)OC4)c23)cc1` [Compound I-652, N-(4-(4-(((3R,6S)-6-(hydroxymethyl)tetrahydro-2H-pyran-3-yl)amino)-7H-pyrrolo[2,3-d]pyrimidine-5-carbonyl)benzyl)-2-methoxybenzamide], the IC50 in test [1] was 497 nM; in test [2], 177 nM.

For the compound `COCCNC(=O)c1ccc(C(=O)c2c[nH]c3ncnc(N[C@@H]4CC[C@@H](CO)OC4)c23)cc1` [Compound I-636, 4-(4-(((3R,6S)-6-(hydroxymethyl)tetrahydro-2H-pyran-3-yl)amino)-7H-pyrrolo[2,3-d]pyrimidine-5-carbonyl)-N-(2-methoxyethyl)benzamide], the inhibition at 10 µM stood at 41% in test [1] and 62% in test [2].

In the case of `O=C(c1cccc(NC(=O)C2CCOCC2)c1)c1c[nH]c2ncnc(N[C@@H]3CC[C@@H](CO)OC3)c12` [Compound I-644, N-(3-(4-(((3R,6S)-6-(hydroxymethyl)tetrahydro-2H-pyran-3-yl)amino)-7H-pyrrolo[2,3-d]pyrimidine-5-carbonyl)phenyl)tetrahydro-2H-pyran-4-carboxamide], the figures for the inhibition at 10 µM in test [1] and in test [2] were 44% and 58%, respectively.

Turning to `O=C(COCc1ccccc1)Nc1ccc(C(=O)c2c[nH]c3ncnc(N[C@@H]4CC[C@@H](CO)OC4)c23)c(Cl)c1` [Compound I-641, 2-(benzyloxy)-N-(3-chloro-4-(4-(((3R,6S)-6-(hydroxymethyl)tetrahydro-2H-pyran-3-yl)amino)-7H-pyrrolo[2,3-d]pyrimidine-5-carbonyl)phenyl) acetamide], the IC50 stood at 32.6 nM in test [1] and 8.28 nM in test [2].

Regarding `C=CS(=O)(=O)N1CCCC(Nc2ncnc3[nH]cc(C(=O)c4ccc(Oc5ccccc5)cc4Cl)c23)C1` (racemic) [Compound I-322r, (racemic)-(2-chloro-4-phenoxyphenyl)(4-((1-(vinylsulfonyl)piperidin-3-yl)amino)-7H-pyrrolo[2,3-d]pyrimidin-5-yl)methanone], the concentration for half-maximal inhibition (IC50) in test [1] came to 98.6 nM; in test [2] it was 10.4 nM.

On to `Cn1cc(NC(=O)c2ccc(Cl)c(C(=O)c3c[nH]c4ncnc(N[C@@H]5CC[C@@H](CO)OC5)c34)c2)cn1` [Compound I-629, 4-chloro-3-(4-(((3R,6S)-6-(hydroxymethyl)tetrahydro-2H-pyran-3-yl)amino)-7H-pyrrolo[2,3-d]pyrimidine-5-carbonyl)-N-(1-methyl-1H-pyrazol-4-yl)benzamide], for which the IC50 in test [1] is 804 nM; in test [2], 89.5 nM.

With `O=C(NCc1ccccc1)c1ccc(C(=O)c2c[nH]c3ncnc(N[C@@H]4CC[C@@H](CO)OC4)c23)c(Cl)c1` [Compound I-618, N-benzyl-3-chloro-4-(4-(((3R,6S)-6-(hydroxymethyl)tetrahydro-2H-pyran-3-yl)amino)-7H-pyrrolo[2,3-d]pyrimidine-5-carbonyl)benzamide], the 50% inhibitory concentration (IC50) in test [1] is 399 nM; in test [2] it was 87.4 nM.

Turning to `O=C(c1ccc(C(=O)N2CCOCC2)cc1Cl)c1c[nH]c2ncnc(N[C@@H]3CC[C@@H](CO)OC3)c12` [Compound I-611, (3-chloro-4-(4-(((3R,6S)-6-(hydroxymethyl)tetrahydro-2H-pyran-3-yl)amino)-7H-pyrrolo[2,3-d]pyrimidine-5-carbonyl)phenyl)(morpholino) methanone], the 50% inhibitory concentration (IC50) was 1510 nM in test [1] and 1140 nM in test [2].
